The test system of test [1] is SKBR3 cells. The test can be described thus: Annexin V-FITC/PI apoptosis detection, SKBR3. Type of test: cell-based, human. Particulars: SKBR3, 6.4 µM, 48 h. As to the method:
To evaluate the induction of apoptosis, the translocation of phosphatidylserine to the outer cell membrane, as a hallmark of early apoptosis, was detected by the binding of annexin V, using the Annexin V-FITC Early Apoptosis Detection Kit (BD BioVision). Cells were seeded at a density of 5 × 10^5 cells per 100 mm culture plate and allowed to adhere overnight. […] At the end of the treatment period, cells were harvested by trypsinization, washed twice with ice-cold PBS, and resuspended in 500 µL of chilled 1X Annexin V Binding Buffer. To each sample, 5 µL of Annexin V-FITC conjugate and 5 µL of propidium iodide (PI, 50 µg/mL) were added. The cell suspensions were incubated for 5 minutes on ice in the dark to allow for staining.
Flow cytometric analysis was performed using excitation at 488 nm and emission at 530 nm for FITC detection (FL1 channel) and phycoerythrin emission settings for PI detection (FL2 channel). Data acquisition and analysis were facilitated by Cell Quest software (BD Biosciences), with dot plots divided into four quadrants to distinguish different cell populations: lower left (LL) for viable, non-apoptotic cells (negative for both annexin V and PI); lower right (LR) for early apoptotic cells (annexin V-positive, PI-negative); upper left (UL) for dead or necrotic cells (PI-positive, annexin V-negative); and upper right (UR) for late apoptotic cells (double-positive). All assays were conducted in triplicate to ensure reliability and reproducibility.

The next test deals with caspase 9. The test can be described thus: Real-time PCR caspase gene expression in BT-474 cells. The test is classed as cell-based, human. Particulars: BT-474, liquiritin at its IC50. The protocol:
(§1) RNA extraction was performed using Qiagen total RNA extraction kit from seeded BT-474 cells untreated and treated with liquiritin at a concentration equivalent to its respective IC50 value (determined via prior proliferation assays) according to the manufacturer’s manual. NanoDrop Lite Plus spectrophotometer™ (ThermoScientific, USA) was used for quantitation and purity evaluation of the extracted total RNA. cDNA synthesis and real-time quantitative PCR were performed in one reaction tube using iScript™ One-Step RT-PCR Kit with SYBR® Green (Bio-Rad, USA) using primers listed in Table S2 per the instruction’s manual. The relative gene expression of caspases 3, 8, and 9 was analyzed using the 2^−ΔΔCT method along with untreated BT-474 cells as control and Glyceraldehyde-3-phosphate dehydrogenase (GAPDH) as a housekeeping gene. The data were expressed as fold change in gene expression.

The test system of a further test is caspase 8. The description is as above. Type of test: cell-based, human. Particulars: BT-474, liquiritin at its IC50. As to the method:
as §1

Another test relates to caspase 3. The description is as above. The test is classed as cell-based, human. To be noted: BT-474, liquiritin at its IC50. The protocol: as §1
Test [2] has as its system BT-474 cells. The test can be described thus: Wound healing assay, BT-474. Type of test: cell-based. To be noted: Homo sapiens. As to the method: In a sterile flat-bottom 24-well plate, SKBR3 and BT-474 breast cancer cells were plated at a density of 1 × 10^5 cells/well. […] Wounds were then inflicted across each cell monolayer using a sterile 200 µL pipette tip. Media was aspirated, and cells were washed twice with PBS to remove floating cells and cell debris. Fresh serum-free media was placed up against the well wall to cover the bottom of the well and prevent further cell detachment. Incubation of cells was resumed for five hours at 37 °C in a humidified CO2 incubator. Subsequently, the media were substituted with fresh ones containing various doses of liquiritin, oroxin B, or DMSO as a vehicle control (3 replicates/group) along with EGF (100 ng/mL) as a scattering factor. Wound closure was microscopically monitored in vehicle-treated control wells, and the time frame for wound closure was determined to be 72 h. Before the closure of wounds in the vehicle-treated control wells, the media were removed, cells were washed with PBS and completely fixed using cold methanol for 20 min at 4 °C. An inverted VistaVision microscope was used to take pictures of the wounds monitored at zero and 72 h with a VistaVision Still camera (VWR, Radnor, PA).
Results were expressed as a percentage of cell migration according to the following Equation[16]: [drawing 2]
Where Tt is the wound thickness in treatment wells, TDMSO is the thickness of the wound in control wells treated by DMSO, and Tº is the thickness of the wound at zero time. Wound thickness was calculated in three or more randomly selected fields per treatment group.

Test [3] has as its system BT-474 cells. The test can be described thus: Transwell cell migration assay, BT-474. Type of test: cell-based. Particulars: Homo sapiens; BT-474, 3.5 µM, 24 h; read-out: inhibition of migration relative to vehicle-treated cells. The protocol: The in vitro transwell migration assay was conducted using an HTS-96 transwell permeable support chamber with 8 μm pores (Corning, USA) equipped with polyvinylpyrrolidone-free polycarbonate (PVPF) filters. […] The plate was incubated for 24 h at 37 °C. Then, the transwell inserts were incubated in the receiver plate with Calcein AM/cell dissociation solution at 37 °C in 5% CO2 incubator for 1 h, followed by measuring the fluorescence using a fluorescence plate reader with 485 nm excitation and 520 nm emission filter package. The relative fluorescence units were converted to cell count using a standard curve. The number of cells that moved to the lower side of the filter was used to assess migratory characteristics. The experiment in both cell lines was conducted in triplicate and data are presented as the mean ± SD.

Test [4] deals with SKBR3 cells. The test can be described thus: MTT proliferation assay, SKBR3. The test is classed as cell-based, human. To be noted: Homo sapiens, SK-BR-3. A general note: Formazan colour is commonly taken as a measure of viable cells.
In test [5] the test system is BT-474 cells. The test can be described thus: Cell cycle analysis by PI flow cytometry, BT-474. The test is classed as cell-based, human. Particulars: BT-474, 3.5 µM, 24 h (control 59%). The protocol: To evaluate liquiritin’s impact on cell cycle progression, a propidium iodide (PI)-based flow cytometry assay was performed using the Cell Cycle Analysis Kit (ab139418, Abcam) following the manufacturer’s protocol. BT-474 and SKBR3 cells were seeded into 100 mm culture plates at a density of 1 × 10^6 cells/plate in RPMI 1640 medium supplemented with 10% FBS and incubated overnight. To synchronize cells in the G1 phase, cultures were rinsed twice with PBS and maintained in serum-reduced medium (0.5% FBS) for 48 h. Synchronized cells were subsequently treated with liquiritin at concentrations equivalent to its respective IC50 values (determined via prior proliferation assays) in serum-free media for 24 h.
Post-treatment, cells were detached using trypsin, washed with ice-cold PBS, and fixed in 66% ethanol at 4 °C for 2 h. Fixed cells were rehydrated in PBS and stained with a freshly prepared PI solution (1 mg/mL PI, 5,500 U/mL RNase A in PBS) for 30 min at 4 °C in the dark. DNA content was quantified using a BD FACS Calibur flow cytometer (BD Biosciences, San Jose, CA), with 10,000 events analyzed per sample. Cell cycle phase distributions (G0/G1, S, G2/M) were calculated from histogram data generated by Cell Quest software (BD Biosciences). All assays were performed in triplicate to ensure reproducibility.
On the technique in general: Flow cytometry measures light scatter and fluorescence of single cells or particles in a stream.

Structures are written as SMILES. Like-named read-outs stand apart in the source and are kept apart here.

`O=C1C[C@@H](c2ccc(O[C@@H]3O[C@H](CO)[C@@H](O)[C@H](O)[C@H]3O)cc2)Oc2cc(O)ccc21` [Liquiritin]: in the test on SKBR3 cells [1], the early apoptotic population is 7.33%. Besides, in the test on SKBR3 cells [1], the “late apoptosis (Annexin V+/PI+) cells” value came out at 14.59%. In the test with SKBR3 cells [1], this compound had a necrotic population of 2.84%. Also, the “caspase 9 expression, fold change vs untreated cells” value in the test on caspase 9 was about 8.1 fold. Also, in the test with caspase 8, the “caspase-8 expression, fold increase” value worked out at 2.6 fold. Besides, in the test with caspase 3, the “caspase 3 expression, fold change vs untreated cells” value is reported as “approximately 10.8 fold”. Besides, the inhibition at 2 µM with BT-474 cells [2] (BT-474, 2 µM, 72 h, read-out: inhibition of cell migration) was found to be 20%. In the test on BT-474 cells [2] (BT-474, 3 µM, 72 h, read-out: inhibition of cell migration), the inhibition at 3 µM was determined as 25.6%. For the same compound, the inhibition at 5 µM in the test with BT-474 cells [2] (BT-474, 5 µM, 72 h, read-out: inhibition of cell migration) came out at 31.2%. In addition, the inhibition at 10 µM in the test with BT-474 cells [2] (BT-474, 10 µM, 72 h, read-out: inhibition of cell migration) was 50.6%. Moreover, the IC50 in the test on BT-474 cells [2] (BT-474, wound healing, read-out: IC50, cell migration) was found to be 10.4 µM; in the test with SKBR3 cells [4] (SKBR3, MTT, 48 h (Table S8), read-out: Cell growth inhibition IC50), 6.4 µM; with SKBR3 cells [4] (SKBR3, Table S9, read-out: IC50) it was 6.4 ± 0.2 µM. Also, the inhibition at 3.5 µM in the test with BT-474 cells [3] is about 76%. In the test on BT-474 cells [5], the “proportion of cells in G1 phase” value is listed as about 88%.
